From publication PMC6764862 (Xenobiotica; the fate of foreign compounds in biological …, 2019)
Like-named read-outs stand apart in the source and are kept apart here.

What was measured:
[1] = target: T1, human AhR (hAhR) (Homo sapiens, UniProt P35869); assay: AhR-dependent pXRE-SV40-Luc luciferase reporter in HepG2 cells; format: cell-based; settings: for Relative effect potency (REP) HepG2: EC50-based, relative to TCDD, human system; for maximum response, luciferase activity: concentration-response
T1 sequence (P35869 11-848): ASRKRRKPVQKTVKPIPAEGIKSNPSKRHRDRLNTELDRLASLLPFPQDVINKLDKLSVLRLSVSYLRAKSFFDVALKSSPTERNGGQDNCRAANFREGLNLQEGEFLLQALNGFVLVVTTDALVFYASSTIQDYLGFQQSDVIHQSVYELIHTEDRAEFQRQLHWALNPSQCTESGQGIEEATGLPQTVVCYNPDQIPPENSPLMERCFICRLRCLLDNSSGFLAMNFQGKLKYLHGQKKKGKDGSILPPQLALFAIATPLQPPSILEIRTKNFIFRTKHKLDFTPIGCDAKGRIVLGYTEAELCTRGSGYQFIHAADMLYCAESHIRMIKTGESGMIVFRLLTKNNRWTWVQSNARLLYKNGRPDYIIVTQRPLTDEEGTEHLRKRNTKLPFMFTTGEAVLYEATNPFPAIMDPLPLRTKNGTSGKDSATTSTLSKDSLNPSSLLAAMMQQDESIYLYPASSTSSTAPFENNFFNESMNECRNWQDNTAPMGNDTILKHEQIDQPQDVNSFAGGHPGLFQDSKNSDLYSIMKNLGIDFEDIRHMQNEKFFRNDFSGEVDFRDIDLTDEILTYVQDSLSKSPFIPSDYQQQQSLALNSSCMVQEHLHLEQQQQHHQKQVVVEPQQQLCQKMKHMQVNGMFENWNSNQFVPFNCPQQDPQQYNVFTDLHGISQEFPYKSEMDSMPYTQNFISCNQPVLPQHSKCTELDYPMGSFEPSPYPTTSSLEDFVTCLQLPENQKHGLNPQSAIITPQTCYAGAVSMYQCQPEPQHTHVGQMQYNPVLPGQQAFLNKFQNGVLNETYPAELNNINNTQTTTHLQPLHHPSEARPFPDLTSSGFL

[2] = system: CYP1A1 (AhR target gene); assay: CYP1A1 mRNA induction in primary human hepatocytes; format: cell-based; settings: primary human hepatocytes
[3] = system: Cyp1a1 (AhR target gene); assay: Cyp1a1 mRNA induction in primary mouse hepatocytes; format: cell-based; settings: primary mouse hepatocytes
[4] = target: T2, mouse AhR (mAhR) (Mus musculus, UniProt P30561); settings: for Relative effect potency (REP) Hepa1c1c7: EC50-based, relative to TCDD, murine system; for maximum response, luciferase activity: concentration-response
T2 sequence (P30561 10-848): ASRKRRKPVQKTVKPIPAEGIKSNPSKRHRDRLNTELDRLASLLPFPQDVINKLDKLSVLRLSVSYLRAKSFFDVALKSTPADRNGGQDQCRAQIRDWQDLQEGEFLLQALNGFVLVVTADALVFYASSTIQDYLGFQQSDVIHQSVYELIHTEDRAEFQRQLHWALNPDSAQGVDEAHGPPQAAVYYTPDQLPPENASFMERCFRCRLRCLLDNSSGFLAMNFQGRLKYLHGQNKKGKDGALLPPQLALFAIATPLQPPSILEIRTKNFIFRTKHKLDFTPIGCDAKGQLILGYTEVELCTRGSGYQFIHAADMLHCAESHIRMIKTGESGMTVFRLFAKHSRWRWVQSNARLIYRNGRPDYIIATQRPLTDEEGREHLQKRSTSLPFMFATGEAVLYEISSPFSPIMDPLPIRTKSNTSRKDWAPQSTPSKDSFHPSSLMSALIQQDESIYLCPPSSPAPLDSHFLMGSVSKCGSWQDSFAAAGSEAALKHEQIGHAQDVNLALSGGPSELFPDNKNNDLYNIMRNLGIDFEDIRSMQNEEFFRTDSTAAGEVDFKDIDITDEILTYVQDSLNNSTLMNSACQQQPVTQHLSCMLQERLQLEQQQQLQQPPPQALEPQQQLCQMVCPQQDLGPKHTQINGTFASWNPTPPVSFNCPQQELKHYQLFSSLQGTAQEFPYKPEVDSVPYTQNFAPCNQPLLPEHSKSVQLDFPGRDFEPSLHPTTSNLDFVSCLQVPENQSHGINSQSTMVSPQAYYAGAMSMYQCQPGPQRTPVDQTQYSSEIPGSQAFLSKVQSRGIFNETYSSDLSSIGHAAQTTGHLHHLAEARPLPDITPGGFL

[5] = system: mouse AhR (mAhR); settings: for REP ratio Hepa1c1c7/HepG2: mouse REP over human REP
[6] = system: EGFR; settings: up to; highest potency of all congeners tested; ref Hardesty et al., 2018; cited from earlier work
[7] = system: CYP1A1 mRNA (AhR target gene); assay: CYP1A1 mRNA induction in primary human hepatocytes; format: cell-based; settings: human
[8] = system: Cyp1a1 mRNA (AhR target gene); assay: Cyp1a1 mRNA induction in primary mouse hepatocytes; format: cell-based; settings: male, C57BL/6, mouse
[9] = target: T2, mouse AhR (mAhR); assay: in vitro; settings: hepa1c1c7 cells
[10] = read-out: EC50 for AhR luciferase reporter activity, HepG2 cells, 24 h treatment

SMILES	Relative effect potency (REP) HepG2 [1]	luciferase activity increase ([1]; HepG2 cells, 10 μM, 24 h, positive controls) [fold]	maximum response, luciferase activity ([1]; HepG2 cells) [fold]	WHO 2005 TEF fold higher than the human REP ([1]; TEF vs HepG2 REP of this study) [fold]	EC50 [1, 10] [nM]	maximal induction of CYP1A1 mRNA [2] [fold]	EC50 ([2]; read-out: EC50 for induction of CYP1A1 mRNA, 24 h) [nM]	maximal induction of Cyp1a1 mRNA [3] [fold]	Relative effect potency (REP) Hepa1c1c7 [4]	luciferase activity increase ([4]; Hepa1c1c7 cells, 10 μM, 24 h, positive controls) [fold]	maximum response, luciferase activity ([4]; Hepa1c1c7 cells) [fold]	fold more potent (lower EC50) in Hepa1c1c7 than in HepG2, luciferase reporter ([5]; mAhR vs hAhR, cell lines)	REP ratio Hepa1c1c7/HepG2 [5]	IC50 for EGFR inhibition [6] [log M]	WHO 2005 TEF fold lower than the human REP ([1]; TEF vs HepG2 REP of this study) [fold]	fold higher EC50 in Hepa1c1c7 cells compared to HepG2 cells ([5]; luciferase reporter)	EC50 [1] [nM]	EC50 at 24 h [7] [nM]	EC50 at 24 h [8] [nM]	maximal fold induction at 24 h [9]
Clc1ccc(-c2cc(Cl)c(Cl)c(Cl)c2)cc1Cl [PCB 126]	0.002	42	31.6	50	250 ± 150	45.1	195 ± 35	53.3	0.006	3.7	5.9	approximately 53 fold	3	−16.07 ± 0.31						
Clc1ccc(-c2cc(Cl)c(Cl)c(Cl)c2)cc1 [PCB 81]	0.06		34.6		6.8 ± 2.7				0.0009		2.3		0.015		200	approximately 5 fold				
Clc1ccc(-c2cc(Cl)c(Cl)c(Cl)c2Cl)cc1 [PCB 114]	≤ 0.00007				≥ 5000				0.00004				≥ 0.5							
Clc1ccc(-c2ccc(Cl)c(Cl)c2)cc1Cl [PCB 77]	≤ 0.00009				≥ 4000				0.0003				≥ 3.3							
Clc1cc2c(cc1Cl)Oc1cc(Cl)c(Cl)cc1O2 [TCDD, 2,3,7,8-tetrachlorodibenzo-p-dioxin, reference compound]	1		83										1				0.4 ± 0.1	0.45 ± 0.34	0.04 ± 0.02	2.2
Clc1cc(-c2cc(Cl)c(Cl)c(Cl)c2)cc(Cl)c1Cl [PCB 169]	≤ 0.00005			> 300	≥ 7000				0.001				≥ 20							
